In general, IC50 refers to the concentration that gives 50% inhibition.

Counter-ions that a name gives are not always drawn.

These results are taken from patent EP0227941A1, “1-Phenyl-4-(1H)-pyridazinimines, their preparation and use” (BASF Aktiengesellschaft, priority 1985, dated 1987).

Common to all, as to assay type: biochemical, Ratten
Experiment [1] concerns the target T1, Synaptosomen-Aufnahme von Noradrenalin (Rattus norvegicus, UniProt Q63380).
T1 construct: Durch differentielle Zentrifugation wurden Synaptosomen erhalten; from tissue; host or cells: rat brain hippocampus synaptosomes
As to the kind of experiment: Inhibition of noradrenaline uptake in rat brain synaptosomes (hippocampus, 3H-noradrenaline). Conditions: for Hemmung der Synaptosomen-Aufnahme von Noradrenalin r.W. (relative Wirksamkeit): Quotient IC50 Referenzverbindung / IC50 Beispielverbindung; for IC50: rat hippocampus synaptosomes, 3H-Noradrenalin ca. 10 nM, 37°C, read-out: Hemmung der Synaptosomen-Aufnahme von Noradrenalin IC50. The source says:
(§1) Hemmung der Neurotransmitter-Aufnahme in Rattenhirn-Synaptosomen
(§2) Hippocampus und Cortex aus Rattenhirn wurden präpariert und in 0,32 M Sucrose-Lösung homogenisiert. Durch differentielle Zentrifugation wurden Synaptosomen erhalten, die in Pufferlösung suspendiert wurden. Die Synaptosomen sind in der Lage, aus dem umgebenden Medium zugefügte Neurotransmittersubstanzen (z.B. Noradrenalin oder Serotonin) aktiv aufzunehmen. Dieser Vorgang ist durch uptake-Hemmer konzentrationsabhängig antagonisierbar. Die Synaptosomen wurden mit den Testsubstanzen in verschiedenen Konzentrationen versetzt und anschließend mit ³H-Noradrenalin (Hippocampus) bzw. ³H-Serotonin (Cortex) bei 37°C inkubiert. Die Substratkonzentration betrug ca. 10 nM. Nach Stoppen der Aufnahme durch Verdünnen mit eisgekühlter Pufferlösung wurden die Synaptosomen abzentrifugiert und die ³H-Aktivität im Sediment gemessen. Der Blindwert wird durch Inkubation bei 0°C ermittelt.
(§3) Aus den verschiedenen Inhibitor-Konzentrationen gegen Kontrolle ermittelten Hemmwerten wurde durch lineare Regression nach logit-log-Transformation die mittlere Hemmkonzentration IC₅₀ berechnet.

Experiment [2] has as its target T2, Synaptosomen-Aufnahme von Serotonin (Rattus norvegicus, UniProt P31652).
T2 construct: Durch differentielle Zentrifugation wurden Synaptosomen erhalten; from tissue; host or cells: rat brain cortex synaptosomes
As to the kind of experiment: Inhibition of serotonin uptake in rat brain synaptosomes (cortex, 3H-serotonin). Conditions: for Hemmung der Synaptosomen-Aufnahme von Serotonin r.W. (relative Wirksamkeit): Quotient IC50 Referenzverbindung / IC50 Beispielverbindung; for IC50: rat cortex synaptosomes, 3H-Serotonin ca. 10 nM, 37°C, read-out: Hemmung der Synaptosomen-Aufnahme von Serotonin IC50.
Text: as §1, §2, §3

For experiment [3], the target named is T3, Monoaminoxidase Typ A (Rattus norvegicus, UniProt P21396).
T3 construct: Die Bestimmung der Monoaminoxidase erfolgte in verdünntem Rattenhirnhomogenat; from tissue; host or cells: rat brain homogenate
T3 sequence (P21396 1-526): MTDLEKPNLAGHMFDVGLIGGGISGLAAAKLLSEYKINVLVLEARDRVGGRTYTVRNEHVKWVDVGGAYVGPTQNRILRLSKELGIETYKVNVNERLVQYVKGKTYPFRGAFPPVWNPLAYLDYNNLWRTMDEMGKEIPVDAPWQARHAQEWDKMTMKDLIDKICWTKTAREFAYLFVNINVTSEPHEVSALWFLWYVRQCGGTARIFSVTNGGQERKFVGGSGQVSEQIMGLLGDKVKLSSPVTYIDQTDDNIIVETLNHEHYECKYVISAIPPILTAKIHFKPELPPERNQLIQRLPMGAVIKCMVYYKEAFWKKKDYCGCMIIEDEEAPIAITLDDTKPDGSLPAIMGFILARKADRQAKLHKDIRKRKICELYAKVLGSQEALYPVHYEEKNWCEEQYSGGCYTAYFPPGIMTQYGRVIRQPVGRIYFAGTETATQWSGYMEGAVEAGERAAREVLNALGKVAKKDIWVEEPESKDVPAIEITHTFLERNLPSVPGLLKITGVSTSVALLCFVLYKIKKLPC
The experiment can be described thus: Inhibition of monoamine oxidase type A in rat brain homogenate (14C-tryptamine). Conditions: for Hemmung der Monoaminoxidase Typ A r.W. (relative Wirksamkeit): Quotient IC50 Referenzverbindung / IC50 Beispielverbindung; for IC50: rat brain homogenate, 14C-Tryptamin, 20 min 37°C, read-out: Hemmung der Monoaminoxidase Typ A IC50. As for the experimental part:
(§4) Hemmung der Monoaminoxidase
(§5) Die Bestimmung der Monoaminoxidase erfolgte in verdünntem Rattenhirnhomogenat dem 1. unterschiedliche Konzentrationen der zu prüfenden Testsubstanzen und 2. für die Bestimmung der Monoaminoxidase Typ A ¹⁴C-Tryptamin in einer Konzentration von 0,4 µmol, zur Bestimmung der Monoaminoxidase Typ B ¹⁴C-Phenylethylamin in einer Konzentration von 0,25 µmol zugesetzt wurde. Dieser Ansatz wurde 20 Minuten bei 37°C inkubiert. Die Reaktion wird durch 0,1 n HCl gestoppt und die Reaktionsprodukte nach Extraktion in Toluol-Szintillator (PPO + POPOP in Toluol) bestimmt. Der Blindwert wird in analogen Ansätzen mit einer Inkubationszeit von t = 0 Minuten bestimmt.
(§6) Aus den bei den verschiedenen Inhibitorkonzentrationen gegen die Kontrolle ermittelten Hemmwerten wurde durch lineare Regression nach logit-log-Transformation die mittlere Hemmkonzentration (IC₅₀) berechnet.

Experiment [4] has as its target T4, Monoaminoxidase Typ B (Rattus norvegicus, UniProt P19643).
T4 construct: Die Bestimmung der Monoaminoxidase erfolgte in verdünntem Rattenhirnhomogenat; from tissue; host or cells: rat brain homogenate
T4 sequence (P19643 1-520): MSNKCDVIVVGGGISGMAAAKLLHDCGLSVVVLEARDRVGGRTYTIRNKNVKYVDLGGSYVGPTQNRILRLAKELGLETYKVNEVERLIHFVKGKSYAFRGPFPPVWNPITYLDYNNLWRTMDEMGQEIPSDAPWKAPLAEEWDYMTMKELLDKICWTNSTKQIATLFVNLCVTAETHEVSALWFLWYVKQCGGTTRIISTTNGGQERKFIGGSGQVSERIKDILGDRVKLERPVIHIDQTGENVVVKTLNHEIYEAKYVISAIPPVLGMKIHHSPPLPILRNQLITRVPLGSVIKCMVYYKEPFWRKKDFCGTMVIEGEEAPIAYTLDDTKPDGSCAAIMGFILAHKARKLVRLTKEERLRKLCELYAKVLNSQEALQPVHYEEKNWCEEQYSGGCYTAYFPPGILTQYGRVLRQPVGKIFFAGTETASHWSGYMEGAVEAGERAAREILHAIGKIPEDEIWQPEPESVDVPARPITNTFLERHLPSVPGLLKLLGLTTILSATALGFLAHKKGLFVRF
As to the kind of experiment: Inhibition of monoamine oxidase type B in rat brain homogenate (14C-phenylethylamine). Conditions: for Hemmung der Monoaminoxidase Typ B r.W. (relative Wirksamkeit): Quotient IC50 Referenzverbindung / IC50 Beispielverbindung; for IC50: rat brain homogenate, 14C-Phenylethylamin, 20 min 37°C, read-out: Hemmung der Monoaminoxidase Typ B IC50. The procedure:
as §4, §5, §6

T2 sequence (P31652 whole entry): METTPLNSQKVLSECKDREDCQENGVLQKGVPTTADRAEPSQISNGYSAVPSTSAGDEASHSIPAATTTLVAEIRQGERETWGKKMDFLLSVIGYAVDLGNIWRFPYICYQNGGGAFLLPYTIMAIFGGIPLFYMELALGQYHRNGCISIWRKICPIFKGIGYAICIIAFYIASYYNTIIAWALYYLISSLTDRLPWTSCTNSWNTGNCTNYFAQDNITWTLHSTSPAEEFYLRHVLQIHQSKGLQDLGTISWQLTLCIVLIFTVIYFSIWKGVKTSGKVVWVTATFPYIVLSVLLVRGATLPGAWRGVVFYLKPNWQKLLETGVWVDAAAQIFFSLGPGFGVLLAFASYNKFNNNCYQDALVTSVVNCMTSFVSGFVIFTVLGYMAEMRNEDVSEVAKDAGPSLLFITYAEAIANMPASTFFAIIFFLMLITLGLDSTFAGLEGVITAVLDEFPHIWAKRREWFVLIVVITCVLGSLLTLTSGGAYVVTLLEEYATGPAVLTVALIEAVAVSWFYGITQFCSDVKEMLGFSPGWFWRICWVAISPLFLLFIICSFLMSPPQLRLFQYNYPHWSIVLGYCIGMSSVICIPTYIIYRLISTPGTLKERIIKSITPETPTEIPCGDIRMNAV
T1 sequence (Q63380 1-617): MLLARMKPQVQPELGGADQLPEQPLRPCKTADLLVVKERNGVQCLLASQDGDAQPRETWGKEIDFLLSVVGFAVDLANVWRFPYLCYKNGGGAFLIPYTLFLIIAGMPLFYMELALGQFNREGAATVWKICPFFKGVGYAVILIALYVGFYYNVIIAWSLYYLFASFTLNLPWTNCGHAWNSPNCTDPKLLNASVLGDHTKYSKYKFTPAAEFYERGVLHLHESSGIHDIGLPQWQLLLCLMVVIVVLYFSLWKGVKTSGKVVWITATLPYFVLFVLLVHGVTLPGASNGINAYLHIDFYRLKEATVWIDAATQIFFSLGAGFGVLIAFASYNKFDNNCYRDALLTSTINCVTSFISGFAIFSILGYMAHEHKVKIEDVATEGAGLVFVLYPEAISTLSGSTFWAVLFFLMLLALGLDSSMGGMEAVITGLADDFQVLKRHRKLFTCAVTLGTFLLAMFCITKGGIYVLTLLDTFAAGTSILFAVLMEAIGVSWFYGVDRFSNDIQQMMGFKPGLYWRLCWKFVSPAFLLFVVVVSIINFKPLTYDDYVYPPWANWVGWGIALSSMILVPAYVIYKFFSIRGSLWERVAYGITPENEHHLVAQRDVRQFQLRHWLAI

For `N=c1ccn(-c2ccc(C(F)(F)F)cc2)nc1` [Beispiel 32, 1-(4-Trifluormethylphenyl)-4-(1H)-pyridazinimin-hydrobromid], in experiment [1], the “Hemmung der Synaptosomen-Aufnahme von Noradrenalin r.W. (relative Wirksamkeit)” value was found to be 0.1 and the IC50 turned out to be 700 nM. In experiment [2], the “Hemmung der Synaptosomen-Aufnahme von Serotonin r.W. (relative Wirksamkeit)” value worked out at 16.6 and the IC50 was 44 nM. Besides, in experiment [3], the “Hemmung der Monoaminoxidase Typ A r.W. (relative Wirksamkeit)” value is recorded as 0.6 and the half-maximal inhibitory concentration (IC50) worked out at 7000 nM. In experiment [4], the “Hemmung der Monoaminoxidase Typ B r.W. (relative Wirksamkeit)” value came to 12.2 and the IC50 came out at 4000 nM.
Consider `Cc1ccc(-n2ccc(=N)cn2)cc1Cl` [Beispiel 42, 1-(3-Chlor-4-methylphenyl)-4-(1H)-pyridazinimin-hydrochlorid], for which, in experiment [1], the “Hemmung der Synaptosomen-Aufnahme von Noradrenalin r.W. (relative Wirksamkeit)” value is on record as 2.1 and the IC50 was 15 nM. For the same compound, in experiment [2], the “Hemmung der Synaptosomen-Aufnahme von Serotonin r.W. (relative Wirksamkeit)” value was 36.5 and the IC50 is 20 nM. In experiment [3], the “Hemmung der Monoaminoxidase Typ A r.W. (relative Wirksamkeit)” value is reported as 5.6 and the IC50 worked out at 750 nM. Further, in experiment [4], the “Hemmung der Monoaminoxidase Typ B r.W. (relative Wirksamkeit)” value was found to be 24.5 and the IC50 stood at 2000 nM.
`Cc1cc(-n2ccc(=N)cn2)ccc1Cl` [Beispiel 45, 1-(3-Methyl-4-chlorphenyl)-4-(1H)-pyridazinimin-sulfat]: in experiment [1], the “Hemmung der Synaptosomen-Aufnahme von Noradrenalin r.W. (relative Wirksamkeit)” value is on record as 1.8 and the IC50 was found to be 17 nM. In experiment [2], the “Hemmung der Synaptosomen-Aufnahme von Serotonin r.W. (relative Wirksamkeit)” value stood at 40.6 and the IC50 came to 18 nM. In experiment [3], the “Hemmung der Monoaminoxidase Typ A r.W. (relative Wirksamkeit)” value was determined as 4.2 and the IC50 was 1000 nM. In experiment [4], the “Hemmung der Monoaminoxidase Typ B r.W. (relative Wirksamkeit)” value is reported as 9.8 and the IC50 amounted to 5000 nM.
Turning to `Cc1cc(-n2ccc(=N)cn2)ccc1Br` [Beispiel 46, 1-(3-Methyl-4-bromphenyl)-4-(1H)-pyridazinimin-sulfat], in experiment [1], the “Hemmung der Synaptosomen-Aufnahme von Noradrenalin r.W. (relative Wirksamkeit)” value was 3.1 and the half-maximal inhibitory concentration (IC50) turned out to be 10 nM. In addition, in experiment [2], the “Hemmung der Synaptosomen-Aufnahme von Serotonin r.W. (relative Wirksamkeit)” value was 103 and the IC50 came to 7.1 nM. In addition, in experiment [3], the “Hemmung der Monoaminoxidase Typ A r.W. (relative Wirksamkeit)” value is reported as 4.2 and the IC50 is 1000 nM. In experiment [4], the “Hemmung der Monoaminoxidase Typ B r.W. (relative Wirksamkeit)” value amounted to 12.2 and the concentration for half-maximal inhibition (IC50) turned out to be 4000 nM.
